According to patent publication US10532069B2, “Compositions and methods for treating joints” (DePuy Synthes Products, Inc., priority 2015, dated 2020):

Assays:
[1] = test system: Complete Freund's Adjuvant (CFA) induced joint inflammation in rat; details: CFA #1
Protocol: Because OA is now known to have an inflammatory component, an animal model that mimics inflammatory arthritis was used to test HA/GlcN/CS formulations. Complete Freund's Adjuvant (CFA) comprises an emulsion of killed bacterial cells that is injected systemically or into the joint of a rat to induce severe inflammation. Two CFA studies were conducted, the first using a 200 uL injection of CFA to induce inflammation (CFA #1), the second using an injection volume of 100 uL (CFA #2). Test articles were prepared using the liquid/liquid formulation method described above.
Von Frey filaments were used to assess mechano-allodynia (pain sensation from a normally non-painful stimulus) on days 6, 7, 8, 17, and 21 following CFA injection. […] This protocol was used to test the 18.0 and 1.8 mg/mL HA/GlcN/CS formulations. As with the rat MMT model, the cumulative improvements in pain relief were calculated. […] In this figure, the 1.8 mg/mL HA/GlcN/CS group and the 18 mg/mL HA/GlcN/CS group are labeled as “G/C 1.8 mg/ml” and “G/C 18 mg/ml”, respectively. The untreated group is labeled as “Untx” in this figure.

[2] = test system: Complete Freund's Adjuvant (CFA) induced joint inflammation in rat; test: CFA model of inflammatory arthritis, study CFA #2 (100 uL CFA); assay type: in vivo; details: daily oral, high dose 30 mg/kg, FIG. 8
Protocol: In CFA #2 the same protocol was followed except for the lower dose of CFA which was intended to induce a less severe inflammatory reaction and subsequently milder pain. Also, daily oral ibuprofen (labeled as “IBR” in FIG. 8) was used as a positive control rather than diclofenac, at doses of 10 mg/kg and high 30 mg/kg. These doses were equivalent to human daily doses of […] and 3600 mg, respectively. Both are considered high doses of ibuprofen that are generally not recommended for long term use.

[3] = test system: PGPS (peptidoglycan polysaccharide) reactivation arthritis in male Lewis rats; test: PGPS model of episodic inflammatory arthritis: weight bearing and gait analysis; assay type: in vivo; details: PGPS second reactivation (after repriming)
Protocol: The PGPS model of arthritis is used to simulate episodic inflammation of the joint. PGPS (peptidoglycan polysaccharide) is a streptococcal cell wall formulation that is injected directly into the joint of the test subject, resulting in a painful inflammatory response. Unlike the continuous FCA response, the inflammatory pain from PGPS is transient, typically lasting only a few days. Following this “priming” injection to the joint, subsequent systemic injections result in inflammatory flares in the previously injected joint for a period of several days. The “reactivation” inflammatory flares can be repeated multiple times, with the inflammatory pain generally decreasing with subsequent reactivation cycles. Alternatively, the joint can be “reprimed” following the initial reactivation, resulting in a more robust inflammatory response in subsequent reactivations.
As with the rat MMT model, the effect of intra-articular therapies is assessed by static weight bearing measurements. […]
In the present experiment, two reactivation cycles were induced in male Lewis rats following the initial PGPS intra-articular injection. […] Weight bearing and gait analysis scores were recorded on days 1, 4, 7, and 14 following the reactivation injection. […] Weight bearing and gait analysis scores were recorded on days 1, 2, 3, and 4 following reactivation. […]

O=C(O)Cc1ccccc1Nc1c(Cl)cccc1Cl [diclofenac] was tested, and the “safety (premature deaths of animals)” value [1] was “several animals in the diclofenac group died prematurely”, the “AUC analysis of pain relief compared to HA alone” value ([1]; comparison with HA alone, FIG. 7) was “statistically superior to HA alone” and the “AUC analysis of pain relief (Von Frey mechano-allodynia)” value ([1]; single IA injection on day 5 after CFA (diclofenac daily oral), days 6, 7, 8, 17, 21, FIG. 7) was “significant improvement in pain relief”.
In the case of CC(C)Cc1ccc(C(C)C(=O)O)cc1 (centres unmarked) [ibuprofen], the “pain relief as cumulative improvement in weight bearing deficiency” value [2] was “significant improvement in pain relief”.
With C[C@]12C=CC(=O)C=C1CC[C@H]1[C@@H]3C[C@@H](O)[C@](O)(C(=O)CO)[C@@]3(C)C[C@H](O)[C@@]12F [triamcinolone] the weight bearing deficit [3] was “significant improvement”.
